Tests used:
PAK1 = PAK1 (Homo sapiens, UniProt Q13153); experiment: In vitro kinase assay, PAK1 (Caliper EZ Reader conversion); type: biochemical; parameters: purchased Carna Biosciences
Method: (§1) The effect of the compounds on the activity of SRC and PAK1 kinase were assessed. SRC and PAK1 kinase enzymes were obtained from Carna Biosciences.
(§2) Test compounds were dissolved in 100% DMSO to prepare a 20 mM stock. Compounds were stored in −20° C. and protected from light. A 100×solution of the compounds were prepared, from which 4-fold serial dilutions was made to achieve a total of 6 concentrations. Saracatinib was used as a positive control for the SRC assay, and FRAX597 was used as a positive control for the PAK1 assay. For the positive controls, a 3-fold serial dilution was made to achieve a total of 10 concentrations. 10 μL 1× Kinase buffer was used as the negative control.
(§3) First, 250 nL of the compounds at each dilution were transferred into wells of a 384-well plate. The PAK1 and SRC kinases were diluted to a 2.5×final concentration with 1×Kinase buffer. Then, 10 μL of enzyme mix was added to the 384-well plate, and the enzymes and compounds were pre-incubated at room temperature for 10 minutes. […] Then, 15 μL of substrate mix was added to a 384-well plate and reacted at room temperature for 30 min and 60 min. The reaction was stopped by adding 30 μL of the stop buffer, and the conversion rate was read using a Caliper EZ Reader.
(§4) Percent inhibition is calculated according to the following equation: […]
(§5) wherein “Conversion %_sample” is the conversion percentage value of the sample; “Conversion %_min” is the average conversion percentage value of the negative control; and “Conversion %_max” is the average conversion percentage value of the positive control.
(§6) The dose-response curve was fitted using GraphPad Prism software (version 5, […]), and the IC50 values for each compounds were calculated by log(inhibitor) vs. response using a variable slope program with the following formula:
(§7) Y=Bottom+(Top-Bottom)/(1+10^((Log IC50−X)*HillSlope))

SRC = biological target: T1, SRC (Homo sapiens, UniProt P12931); experiment: In vitro kinase assay, SRC (Caliper EZ Reader conversion); type: biochemical; conditions: read-out: SRC IC50
T1 construct: purchased Carna Biosciences
Method: as §1
as §2, with “A 100×solution of the compounds were prepared, from which 4-fold serial dilutions was made to achieve a total of 6 concentrations.” left out
as §3, with “The PAK1 and SRC kinases were diluted to a 2.5×final concentration with 1×Kinase buffer.” left out
as §4, §5, §6, §7

Chain of PAK1 (Q13153 whole entry): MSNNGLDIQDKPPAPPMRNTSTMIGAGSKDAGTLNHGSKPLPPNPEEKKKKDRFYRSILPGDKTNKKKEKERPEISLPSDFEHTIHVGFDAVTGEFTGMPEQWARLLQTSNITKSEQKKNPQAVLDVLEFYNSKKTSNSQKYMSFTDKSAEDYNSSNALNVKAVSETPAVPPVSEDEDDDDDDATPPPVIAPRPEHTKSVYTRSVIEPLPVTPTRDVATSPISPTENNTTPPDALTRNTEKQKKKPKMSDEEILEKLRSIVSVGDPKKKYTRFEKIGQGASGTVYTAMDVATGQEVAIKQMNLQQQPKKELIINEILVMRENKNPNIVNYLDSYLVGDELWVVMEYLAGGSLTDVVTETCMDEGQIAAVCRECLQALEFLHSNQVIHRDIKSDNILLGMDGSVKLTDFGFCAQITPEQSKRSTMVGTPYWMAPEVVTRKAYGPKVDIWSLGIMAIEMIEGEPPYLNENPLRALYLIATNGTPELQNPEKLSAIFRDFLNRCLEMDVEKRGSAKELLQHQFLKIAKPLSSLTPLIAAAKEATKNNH
T1 sequence (P12931 whole entry): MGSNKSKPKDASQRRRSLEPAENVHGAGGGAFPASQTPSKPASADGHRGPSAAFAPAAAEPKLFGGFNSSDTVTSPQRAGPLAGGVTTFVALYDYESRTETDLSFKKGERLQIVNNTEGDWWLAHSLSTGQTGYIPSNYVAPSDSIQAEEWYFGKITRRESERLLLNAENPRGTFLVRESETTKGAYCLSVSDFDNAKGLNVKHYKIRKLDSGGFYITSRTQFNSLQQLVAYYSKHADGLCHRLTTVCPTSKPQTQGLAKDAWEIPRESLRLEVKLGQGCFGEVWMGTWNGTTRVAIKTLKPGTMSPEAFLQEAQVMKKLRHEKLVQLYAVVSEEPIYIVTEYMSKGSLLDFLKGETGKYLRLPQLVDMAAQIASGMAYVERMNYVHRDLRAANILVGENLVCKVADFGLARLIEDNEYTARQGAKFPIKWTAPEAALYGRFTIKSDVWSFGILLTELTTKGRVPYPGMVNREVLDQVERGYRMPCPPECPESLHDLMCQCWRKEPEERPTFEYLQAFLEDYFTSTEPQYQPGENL

Row | SMILES | IC50 (PAK1) [µM] | IC50 (SRC) [µM]
1 | Fc1cc(N2CCNCC2)ccc1Nc1ncc2c(n1)N1CCN=C1C(c1ccc(Cl)cc1)=C2 [Compound 28, 6-(4-chlorophenyl)-N-(2-fluoro-4-(piperazin-1-yl)phenyl)-8,9-dihydroimidazo[1′,2′:1,6]pyrido[2,3-d]pyrimidin-2-amine] | > 10 | 0.1 to 10
2 | Fc1cc(N2CCNCC2)ccc1Nc1ncc2c(n1)N1CCN=C1C(c1ccccc1)=C2 [Compound 29, N-(2-fluoro-4-(piperazin-1-yl)phenyl)-6-phenyl-8,9-dihydroimidazo[1′,2′:1,6]pyrido[2,3-d]pyrimidin-2-amine] | > 10 | 0.1 to 10
3 | COc1ccccc1C1=Cc2cnc(Nc3ccc(N4CCNCC4)cc3F)nc2N2CCN=C12 [Compound 31, N-(2-fluoro-4-(piperazin-1-yl)phenyl)-6-(2-methoxyphenyl)-8,9-dihydroimidazo[1′,2′:1,6]pyrido[2,3-d]pyrimidin-2-amine] | > 10 | 0.1 to 10
4 | COc1nc(N2CCNCC2)ccc1Nc1ncc2c(n1)N1CCN=C1C(c1ccc(Cl)cc1)=C2 [Compound 36, 6-(4-chlorophenyl)-N-(2-methoxy-6-(piperazin-1-yl)pyridin-3-yl)-8,9-dihydroimidazo[1′,2′:1,6]pyrido[2,3-d]pyrimidin-2-amine] | > 10 | 0.1 to 10
5 | COc1nc(N2CCNCC2)ccc1Nc1ncc2c(n1)N1CCN=C1C(c1ccccn1)=C2 [Compound 39, N-(2-methoxy-6-(piperazin-1-yl)pyridin-3-yl)-6-(pyridin-2-yl)-8,9-dihydroimidazo[1′,2′:1,6]pyrido[2,3-d]pyrimidin-2-amine] | > 10 | > 10
6 | COc1nc(N2CCNCC2)ccc1Nc1ncc2c(n1)N1CCN=C1C(C#Cc1cccnc1)=C2 [Compound 40, N-(2-methoxy-6-(piperazin-1-yl)pyridin-3-yl)-6-(pyridin-3-ylethynyl)-8,9-dihydroimidazo[1′,2′:1,6]pyrido[2,3-d]pyrimidin-2-amine] | > 10 | > 10
7 | COc1nc(N2CCNCC2)ccc1Nc1ncc2c(n1)N1CCN=C1C(c1ccc(-n3ccnc(C)c3=O)cc1)=C2 [Compound 42, 1-(4-(2-((2-methoxy-6-(piperazin-1-yl)pyridin-3-yl)amino)-8,9-dihydroimidazo[1′,2′:1,6]pyrido[2,3-d]pyrimidin-6-yl)phenyl)-3-methylpyrazin-2(1H)-one] | > 10 | > 10
8 | C1=C(c2ccccc2)C2=NCCN2c2nc(Nc3ccncc3)ncc21 [Compound 43, 6-phenyl-N-(pyridin-4-yl)-8,9-dihydroimidazo[1′,2′:1,6]pyrido[2,3-d]pyrimidin-2-amine] | > 10 | 0.1 to 10
9 | C1=C(c2ccccn2)C2=NCCN2c2nc(Nc3ccncc3)ncc21 [Compound 44, 6-(pyridin-2-yl)-N-(pyridin-4-yl)-8,9-dihydroimidazo[1′,2′:1,6]pyrido[2,3-d]pyrimidin-2-amine] | > 10 | 0.1 to 10
10 | C1=C(c2ccncc2)C2=NCCN2c2nc(Nc3ccncc3)ncc21 [Compound 45, N,6-di(pyridin-4-yl)-8,9-dihydroimidazo[1′,2′:1,6]pyrido[2,3-d]pyrimidin-2-amine] | > 10 | > 10
11 | Clc1cnccc1C1=Cc2cnc(Nc3ccncc3)nc2N2CCN=C12 [Compound 46, 6-(3-chloropyridin-4-yl)-N-(pyridin-4-yl)-8,9-dihydroimidazo[1′,2′:1,6]pyrido[2,3-d]pyrimidin-2-amine] | > 10 | > 10
12 | Clc1ccc(C2=Cc3cnc(Nc4ccncc4)nc3N3CCN=C23)c(Cl)c1 [Compound 47, 6-(2,4-dichlorophenyl)-N-(pyridin-4-yl)-8,9-dihydroimidazo[1′,2′:1,6]pyrido[2,3-d]pyrimidin-2-amine] | > 10 | 0.1 to 10
13 | CN1CCN(CCNc2ncc3c(n2)N2CCN=C2C(c2c(Cl)cccc2Cl)=C3)CC1 [Compound 48, 6-(2,6-dichlorophenyl)-N-(2-(4-methylpiperazin-1-yl)ethyl)-8,9-dihydroimidazo[1′,2′:1,6]pyrido[2,3-d]pyrimidin-2-amine] | > 10 | 0.1 to 10
14 | Clc1cccc(Cl)c1C1=Cc2cnc(NCCC3CCNCC3)nc2N2CCN=C12 [Compound 49, 6-(2,6-dichlorophenyl)-N-(2-(piperidin-4-yl)ethyl)-8,9-dihydroimidazo[1′,2′:1,6]pyrido[2,3-d]pyrimidin-2-amine] | > 10 | 0.1 to 10
15 | Clc1cccc(Cl)c1C1=Cc2cnc(N3CCNCC3)nc2N2CCN=C12 [Compound 50, 6-(2,6-dichlorophenyl)-2-(piperazin-1-yl)-8,9-dihydroimidazo[1′,2′:1,6]pyrido[2,3-d]pyrimidine] | > 10 | > 10

Other lines, results leading:

Row | IC50 (PAK1) [µM] | IC50 (SRC) [µM] | SMILES
16 | > 10 | < 0.1 | CSc1cccc(Nc2ncc3c(n2)N2CCN=C2C(c2ccccc2Cl)=C3)c1 [Compound 18, 6-(2-chlorophenyl)-N-(3-(methylthio)phenyl)-8,9-dihydroimidazo[1′,2′:1,6]pyrido[2,3-d]pyrimidin-2-amine]
17 | > 10 | < 0.1 | Fc1ccc(Nc2ncc3c(n2)N2CCN=C2C(c2ccccc2Cl)=C3)cc1 [Compound 19, 6-(2-chlorophenyl)-N-(4-fluorophenyl)-8,9-dihydroimidazo[1′,2′:1,6]pyrido[2,3-d]pyrimidin-2-amine]
18 | > 10 | < 0.1 | Cc1ccc(Nc2ncc3c(n2)N2CCN=C2C(c2ccccc2Cl)=C3)cc1F [Compound 20, 6-(2-chlorophenyl)-N-(3-fluoro-4-methylphenyl)-8,9-dihydroimidazo[1′,2′:1,6]pyrido[2,3-d]pyrimidin-2-amine]
19 | > 10 | > 10 | Clc1ccccc1C1=Cc2cnc(NC3COC3)nc2N2CCN=C12 [Compound 21, 6-(2-chlorophenyl)-N-(oxetan-3-yl)-8,9-dihydroimidazo[1′,2′:1,6]pyrido[2,3-d]pyrimidin-2-amine]
20 | 0.1 to 10 | < 0.1 | CN(C)CCOc1ccc(Nc2ncc3c(n2)N2CCN=C2C(c2ccccc2Cl)=C3)cc1 [Compound 22, 6-(2-chlorophenyl)-N-(4-(2-(dimethylamino)ethoxy)phenyl)-8,9-dihydroimidazo[1′,2′:1,6]pyrido[2,3-d]pyrimidin-2-amine]
21 | 0.1 to 10 | > 10 | CNc1ncc2c(n1)N1CCN=C1C(c1ccc(N3CCN(C)C3=O)cc1Cl)=C2 [Compound 23, 1-(3-chloro-4-(2-(methylamino)-8,9-dihydroimidazo[1′,2′:1,6]pyrido[2,3-d]pyrimidin-6-yl)phenyl)-3-methylimidazolidin-2-one]
22 | 0.1 to 10 | > 10 | CCNc1ncc2c(n1)N1CCN=C1C(c1ccc(-n3ccnc(C)c3=O)cc1Cl)=C2 [Compound 24, 1-(3-chloro-4-(2-(ethylamino)-8,9-dihydroimidazo[1′,2′:1,6]pyrido[2,3-d]pyrimidin-6-yl)phenyl)-3-methylpyrazin-2(1H)-one]
23 | 0.1 to 10 | > 10 | CNc1ncc2c(n1)N1CCN=C1C(c1ccc(-c3cncc(C)n3)cc1Cl)=C2 [Compound 25, 6-(2-chloro-4-(6-methylpyrazin-2-yl)phenyl)-N-methyl-8,9-dihydroimidazo[1′,2′:1,6]pyrido[2,3-d]pyrimidin-2-amine]
24 | 0.1 to 10 | < 0.1 | Fc1cc(Nc2ncc3c(n2)N2CCN=C2C(c2ccc(Cl)cc2)=C3)ccc1N1CCNCC1 [Compound 26, 6-(4-chlorophenyl)-N-(3-fluoro-4-(piperazin-1-yl)phenyl)-8,9-dihydroimidazo[1′,2′:1,6]pyrido[2,3-d]pyrimidin-2-amine]
25 | > 10 | < 0.1 | Fc1cc(Nc2ncc3c(n2)N2CCN=C2C(c2ccccc2)=C3)ccc1N1CCNCC1 [Compound 27, N-(3-fluoro-4-(piperazin-1-yl)phenyl)-6-phenyl-8,9-dihydroimidazo[1′,2′:1,6]pyrido[2,3-d]pyrimidin-2-amine]
26 | 0.1 to 10 | 0.1 to 10 | COc1nc(N2CCNCC2)ccc1Nc1ncc2c(n1)N1CCN=C1C(c1ccc(Cl)cc1Cl)=C2 [Compound 35, 6-(2,4-dichlorophenyl)-N-(2-methoxy-6-(piperazin-1-yl)pyridin-3-yl)-8,9-dihydroimidazo[1′,2′:1,6]pyrido[2,3-d]pyrimidin-2-amine]

Source: patent US20230303570A1, “KINASE INHIBITORS AND USES THEREOF” (ABM Therapeutics Corporation, priority 2020, published 2023)
